Values joined by “and” are separate entries in the source; they are usually repeats but may differ in a detail not shown here. Identical values can stand only once. Like-named read-outs stand apart in the source and are kept apart here. One block for each compound: values may come before it.
Assays:
[1] = test system: New Zealand White rabbits; conditions: rabbit, in vivo
[2] = in vivo
in vivo = conditions: rabbit
[3] = rabbit, in vivo, 1 mg; cited from earlier work
[4] = human, in vivo, 1 mg; cited from earlier work
[5] = test system: New Zealand White (NZW) rabbits; conditions: rabbit, in vivo
[6] = test system: New Zealand White rabbits; conditions: rabbit, in vivo; remark: listed apart in the source
[7] = test system: rabbit coronary microvessel endothelium; conditions: cited from earlier work

- IOP effects related to dosing [1]: no IOP effects related to dosing
- half-life of the drug in the rabbit [2]: 120 to 180 min
- Tmax (in vivo): 5 min
- IOP increase (mild effect) ([5]; both, New Zealand White): 5-8 mmHg
- IOP increase (absolute value) compared to control eye change, immediately after application ([5]; male, New Zealand White): 2 mmHg
- IOP increase (absolute value) compared to control eye change, immediately after treatment ([5]; male, New Zealand White): 8 mmHg
- change in IOP within one hour after treatment ([5]; male, New Zealand White): 4 mmHg
- effect on the IOP of the treated eye (statistical analysis) [5]: no effect
- time for IOP to return to a normal range after treatment [5]: within one half hour
- time for IOP to return to below baseline after treatment [5]: within one half hour
- time for IOP to return to normal after treatment [5]: within one half hour
- corneal surface covered by corneal haze lesion ([6]; New Zealand White, 4 weeks): about 40%
- typical conjunctival injection score immediately after treatment ([6]; New Zealand White, 12 weeks): 1 or <1
- Ocular Histopathology [6]: NSF
- histopathology of eyes [6]: morphologically normal
- nature of ocular findings (conjunctival injection, discharge, corneal haze) in treated eyes [6]: transient and mild in nature
SMILES: C[C@@H]1C[C@H]2[C@@H]3CCC4=CC(=O)C=C[C@]4(C)[C@@]3(F)[C@@H](O)C[C@]2(C)[C@@]1(O)C(=O)COP(=O)(O)O [DSP, dexamethasone sodium phosphate]
- Cmax after IV injection [3]: 786 ng/mL
- Cmax after IV injection [4]: 10.5 ng/mL
- histopathology finding [6]: mild chronic inflammation at the limbus of the cornea

- Tmax of DEX in plasma ([2]; rabbit): 30 min
SMILES: C[C@@H]1C[C@H]2[C@@H]3CCC4=CC(=O)C=C[C@]4(C)[C@@]3(F)[C@@H](O)C[C@]2(C)[C@@]1(O)C(=O)CO [DEX, dexamethasone]
- concentration that can inhibit prostaglandin release [7]: 10^−7 M and ~40 ng/mL
